# Experimental data published in patent publication US20250228239A1, “MOLECULES HAVING PESTICIDAL UTILITY, AND INTERMEDIATES, COMPOSITIONS, AND PROCESSES, RELATED THERETO” (priority 2024, published 2025).
# Read-outs that look alike come from different tables or passages of the source.
# Legend:
# Format in all cases: in vivo
# [1] = system: Cabbage Looper (Trichoplusia ni, TRIPNI); test: Bioassays on Cabbage Looper (CL), 128-well diet tray assay; settings: Trichoplusia ni
# How it was run: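 Activity is mean percent mortality over eight wells of second-instar larvae exposed to diet treated at 50 μg/cm^2 for 5–7 days at 25° C.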
# [2] = system: Beet Armyworm (Spodoptera exigua, LAPHEG); test: Bioassays on Beet Armyworm (BAW), 128-well diet tray assay; settings: Spodoptera exigua
# How it was run: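 Second-instar larvae, one to five per well, were placed on artificial diet surface-treated with 50 μg/cm^2 compound in 90:10 acetone-water, eight wells per treatment. Trays were held 5–7 days at 25 °C, 14:10 light-dark. Percent mortality per well was averaged over eight wells.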
# [3] = system: Yellow Fever Mosquito (Aedes aegypti, AEDSAE); settings: for YFM: Table ABC: Biological Results, species YFM; for YFM rating: Yellow Fever Mosquito, Table ABC / ABC-DP rating
# How it was run: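 Rating-scale grades reflect larval mortality scored per well after 3 days at room temperature under non-evaporative lids. Larvae (~1 day old, hatched overnight in liver-powder water) were added to six daughter plates per compound, prepared from a 4000 ppm DMSO stock diluted in 90:10 water/acetone.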
# [4] = Table ABC: Biological Results, species CL, read-out: CL
# [5] = Table ABC: Biological Results, species BAW, read-out: BAW
# [6] = Cabbage Looper, Table ABC / ABC-DP rating, read-out: CL rating
# [7] = Beet Armyworm, Table ABC / ABC-DP rating, read-out: BAW rating
SMILES,"pest or weed control at 50 µg/cm2 [1, 4]","pest or weed control at 50 µg/cm2 [2, 5]",YFM [3],"pest or weed control at 50 µg/cm2 [1, 6]","pest or weed control at 50 µg/cm2 [2, 7]",YFM rating [3]
"CCOCC(=O)Nc1c(F)ccc(NC(=O)c2cc(NC(=O)[C@H]3[C@H](c4ccc(F)c(C(F)(F)F)c4)C3(Cl)Cl)ccc2Cl)c1F [F1363, 2-Chloro-5-((1R,3R)-2,2-dichloro-3-(4-fluoro-3-(trifluoromethyl)phenyl)cyclopropane-1-carboxamido)-N-(3-(2-ethoxyacetamido)-2,4-difluorophenyl)benzamide]",50 to 100%,50 to 100%,A (80–100),–,–,–
"O=C(Nc1ccc(F)c(NC(=O)C(F)F)c1F)c1cc(NC(=O)[C@H]2[C@H](c3cc(C(F)(F)F)cc(C(F)(F)F)c3)C2(Cl)Cl)ccc1Cl (relative stereo) [F1802, trans-5-(3-(3,5-bis(Trifluoromethyl)phenyl)-2,2-dichlorocyclopropane-1-carboxamido)-2-chloro-N-(3-(2,2-difluoroacetamido)-2,4-difluorophenyl)benzamide]",–,–,–,50 to 100%,50 to 100%,A (80–100)
"Cc1cc(Br)ccc1NC(=O)c1cc(NC(=O)[C@H]2[C@H](c3cc(Cl)cc(Cl)c3)C2(Cl)Cl)ccc1Cl (relative stereo) [F1054, trans-N-(4-Bromo-2-methylphenyl)-2-chloro-5-(2,2-dichloro-3-(3,5-dichlorophenyl)cyclopropane-1-carboxamido)benzamide]",50 to 100%,50 to 100%,A (80–100),–,–,–
"CN(NC(=O)c1cc(NC(=O)[C@H]2[C@H](c3cc(Cl)cc(Cl)c3)C2(Cl)Cl)ccc1Cl)C(=O)C1(C#N)CC1 (relative stereo) [F2525, trans-2,2-Dichloro-N-(4-chloro-3-(2-(1-cyanocyclopropane-1-carbonyl)-2-methylhydrazine-1-carbonyl)phenyl)-3-(3,5-dichlorophenyl)cyclopropane-1-carboxamide]",–,–,–,50 to 100%,50 to 100%,A (80–100)
"O=C(Nc1ccc(F)cc1)c1c(F)ccc(NC(=O)[C@H]2[C@H](c3ccc(F)c(Cl)c3)C2(Cl)Cl)c1F (relative stereo) [F1100, trans-3-(2,2-Dichloro-3-(3-chloro-4-fluorophenyl)cyclopropane-1-carboxamido)-2,6-difluoro-N-(4-fluorophenyl)benzamide]",50 to 100%,50 to 100%,A (80–100),–,–,–
"COc1c(F)cc(NC(=O)[C@H]2[C@H](c3ccc(F)c(Cl)c3)C2(Cl)Cl)cc1C(=O)NCC(F)(F)F (relative stereo) [F2058, trans-5-(2,2-Dichloro-3-(3-chloro-4-fluorophenyl)cyclopropane-1-carboxamido)-3-fluoro-2-methoxy-N-(2,2,2-trifluoroethyl)benzamide]",–,–,–,50 to 100%,50 to 100%,A (80–100)
"O=C(NCCCCNC(=O)C(F)(F)C(F)(F)F)c1cc(NC(=O)[C@H]2[C@H](c3cc(Cl)cc(Cl)c3)C2(Cl)Cl)ccc1Cl (relative stereo) [F2098, trans-2-Chloro-5-(2,2-dichloro-3-(3,5-dichlorophenyl)cyclopropane-1-carboxamido)-N-(4-(2,2,3,3,3-pentafluoropropanamido)butyl)benzamide]",–,–,–,50 to 100%,50 to 100%,B (More than 0 – Less than 80)
"O=C(CCCNC(=O)c1cc(NC(=O)[C@H]2[C@H](c3cc(Cl)cc(Cl)c3)C2(Cl)Cl)ccc1Cl)NCCC(F)(F)F (relative stereo) [F2093, trans-2-Chloro-5-(2,2-dichloro-3-(3,5-dichlorophenyl)cyclopropanecarboxamido)-N-(4-oxo-4-(3,3,3-trifluoropropylamino)butyl)benzamide]",–,–,–,50 to 100%,50 to 100%,B (More than 0 – Less than 80)
